Assay results as given in patent US20160244437A1, “SUBSTITUTED PHENYLALANINE DERIVATIVES” (BAYER PHARMA AKTIENGESELLSCHAFT, priority 2013, published 2016).
Counter-ions that a name gives are not always drawn.

Legend:
human and animal plasma = test: Determination of anticoagulatory activity: activated partial thromboplastin time (aPTT) in plasma; conditions: concentration of test substance which brings about a 1.5-fold extension of the aPTT; plasma in vitro, C.K. Prest kit
Procedure: The anticoagulatory activity of the test substances is determined in vitro in human and animal plasma (for example mouse, rat, rabbit, pig and dog plasma). To this end, blood is drawn off in a mixing ratio of sodium citrate/blood of 1:9 using a 0.11 molar sodium citrate solution as receiver. Immediately after the blood has been drawn off, it is mixed thoroughly and centrifuged at about 4000 g for 15 minutes. The supernatant is pipetted off.
The activated partial thromboplastin time (aPTT) is determined in the presence of varying concentrations of test substance or the corresponding solvent using a commercial test kit (C.K. Prest from Diagnostica Stago). The test compounds are incubated with the plasma and the PTT reagent (cephalin, kaolin) at 37° C. for 3 minutes. Coagulation is then started by addition of a 25 mM aqueous calcium chloride solution, and the time when coagulation occurs is determined. The concentration of test substance which brings about a 1.5-fold extension of the aPTT is determined.

human factor XIa = target: T1, human factor XIa (Homo sapiens, UniProt P03951); test: Measurement of FXIa inhibition (fluorogenic peptide substrate Boc-Glu(OBzl)-Ala-Arg-AMC); assay type: biochemical; conditions: factor XIa from Kordia 0.45 nM, 15 min pre-incubation, 30 min at 22° C., fluorescence
T1 construct: purchased Kordia
T1 sequence (P03951 388-625 limits assumed): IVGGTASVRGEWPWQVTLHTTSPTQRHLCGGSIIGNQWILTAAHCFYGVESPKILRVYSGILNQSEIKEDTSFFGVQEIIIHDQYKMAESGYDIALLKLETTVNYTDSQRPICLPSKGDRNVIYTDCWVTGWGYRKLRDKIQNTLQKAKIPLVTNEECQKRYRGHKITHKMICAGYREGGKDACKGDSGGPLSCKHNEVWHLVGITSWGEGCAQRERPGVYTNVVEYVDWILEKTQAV
T1 sequence (P03951 19-387 partner limits assumed): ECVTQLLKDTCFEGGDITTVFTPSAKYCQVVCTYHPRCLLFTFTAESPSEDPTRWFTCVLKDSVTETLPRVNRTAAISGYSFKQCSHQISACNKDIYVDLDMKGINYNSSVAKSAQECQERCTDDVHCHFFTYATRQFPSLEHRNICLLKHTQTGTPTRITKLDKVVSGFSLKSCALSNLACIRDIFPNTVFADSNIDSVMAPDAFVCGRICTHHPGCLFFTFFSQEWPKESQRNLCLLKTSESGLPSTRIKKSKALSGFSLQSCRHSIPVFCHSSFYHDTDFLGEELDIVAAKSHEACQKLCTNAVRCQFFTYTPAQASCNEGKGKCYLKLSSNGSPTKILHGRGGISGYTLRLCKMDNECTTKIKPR

| Structure (SMILES) | aPTT (human and animal plasma) [µmol/L] | IC50 (human factor XIa) [nM] |
| --- | --- | --- |
| Cc1cc(C(=O)NC2C3CNCC32)ccc1-c1cccc(C[C@H](NC(=O)C2CCC(CN)CC2)C(=O)Nc2ccc(-c3nnn[nH]3)cc2)c1 (stereo partly drawn) [Example 33, 3′-[(2S)-2-({[trans-4-(Aminomethyl)cyclohexyl]carbonyl}amino)-3-oxo-3-{[4-(1H-tetrazol-5-yl)phenyl]amino}propyl]-N-(3-azabicyclo[3.1.0]hex-6-yl)-2-methylbiphenyl-4-carboxamide hydrochloride] | 0.08 | 7.6 |
| NC[C@H]1CC[C@H](C(=O)N[C@@H](Cc2cccc(-c3cnc(N4CCNCC4)nc3)c2)C(=O)Nc2ccc3[nH]c(=O)[nH]c3c2)CC1 [Example 67, N-alpha-{[trans-4-(Aminomethyl)cyclohexyl]carbonyl}-N-(2-oxo-2,3-dihydro-1H-benzimidazol-5-yl)-3-[2-(piperazin-1-yl)pyrimidin-5-yl]-L-phenylalaninamide hydrochloride] | 0.15 | 37 |
| CCN(CC)CCNC(=O)c1ccc(-c2cccc(C[C@H](NC(=O)[C@H]3CC[C@H](CN)CC3)C(=O)Nc3ccc(-c4nnn[nH]4)cc3)c2)cc1 [Example 42, 3′-[(2S)-2-({[trans-4-(Aminomethyl)cyclohexyl]carbonyl}amino)-3-oxo-3-{[4-(1H-tetrazol-5-yl)phenyl]amino}propyl]-N-[2-(diethylamino)ethyl]biphenyl-4-carboxamide hydrochloride] | 0.35 | 11 |
| CN(C)c1ncc(-c2cccc(C[C@H](NC(=O)[C@H]3CC[C@H](CN)CC3)C(=O)Nc3ccc(-c4nnn[nH]4)cc3)c2)c(OCc2ccccc2)n1 [Example 78, N-alpha-{[trans-4-(Aminomethyl)cyclohexyl]carbonyl}-3-[4-(benzyloxy)-2-(dimethylamino)pyrimidin-5-yl]-N-[4-(1H-tetrazol-5-yl)phenyl]-L-phenylalaninamide hydrochloride] | 0.19 | 2.3 |
| Cc1cc(S(=O)(=O)NC2CCNCC2)ccc1-c1cccc(C[C@H](NC(=O)[C@H]2CC[C@H](CN)CC2)C(=O)Nc2ccc(-c3nnc(Cl)[nH]3)cc2)c1 [Example 55, trans-4-(Aminomethyl)-N-{(2S)-1-{[4-(3-chloro-4H-1,2,4-triazol-5-yl)phenyl]amino}-3-[2′-methyl-4′-(piperidin-4-ylsulphamoyl)biphenyl-3-yl]-1-oxopropan-2-yl}cyclohexanecarboxamide hydrochloride] | 0.14 | 4.3 |
| Cc1ccc(S(=O)(=O)N2CCOCC2)cc1-c1cccc(C[C@H](NC(=O)[C@H]2CC[C@H](CN)CC2)C(=O)Nc2ccc(-c3n[nH]c(=O)[nH]3)cc2)c1 [Example 9, trans-4-(Aminomethyl)-N-[(2S)-3-[2′-methyl-5′-(morpholin-4-ylsulphonyl)biphenyl-3-yl]-1-oxo-1-{[4-(5-oxo-4,5-dihydro-1H-1,2,4-triazol-3-yl)phenyl]amino}propan-2-yl]cyclohexanecarboxamide hydrochloride] | 0.14 | 9.6 |
| CN(C)CCCOc1ccc(-c2cccc(C[C@H](NC(=O)[C@H]3CC[C@H](CN)CC3)C(=O)Nc3ccc4[nH]c(=O)[nH]c4c3)c2)cn1 [Example 100, N-alpha-{[trans-4-(Aminomethyl)cyclohexyl]carbonyl}-3-{6-[3-(dimethylamino)propoxy]pyridin-3-yl}-N-(2-oxo-2,3-dihydro-1H-benzimidazol-5-yl)-L-phenylalaninamide hydrochloride] | 0.34 | 59 |
| CC(=O)Nc1ccc(Cl)c(-c2cccc(C[C@H](NC(=O)[C@H]3CC[C@H](CN)CC3)C(=O)Nc3ccc(-c4nnn[nH]4)cc3)c2)c1 [Example 86, trans-N-[(2S)-3-[5′-(Acetylamino)-2′-chlorobiphenyl-3-yl]-1-oxo-1-{[4-(1H-tetrazol-5-yl)phenyl]amino}propan-2-yl]-4-(aminomethyl)cyclohexanecarboxamide hydrochloride] | 0.24 | 2.5 |
| CCN(CC)CCNC(=O)c1cccc(-c2cccc(C[C@H](NC(=O)[C@H]3CC[C@H](CN)CC3)C(=O)Nc3ccc(-c4nnn[nH]4)cc3)c2)c1 [Example 34, 3′-[(2S)-2-({[trans-4-(Aminomethyl)cyclohexyl]carbonyl}amino)-3-oxo-3-{[4-(1H-tetrazol-5-yl)phenyl]amino}propyl]-N-[2-(diethylamino)ethyl]biphenyl-3-carboxamide hydrochloride] | 0.26 | 8.6 |
| Cc1cc(N2CCOCC2)ncc1-c1cccc(C[C@H](NC(=O)[C@H]2CC[C@H](CN)CC2)C(=O)Nc2ccc(-c3nnc(Cl)[nH]3)cc2)c1 [Example 102, N-alpha-{[trans-4-(Aminomethyl)cyclohexyl]carbonyl}-N-[4-(3-chloro-4H-1,2,4-triazol-5-yl)phenyl]-3-[4-methyl-6-(morpholin-4-yl)pyridin-3-yl]-L-phenylalaninamide hydrochloride] | 0.43 | 2.2 |
| CN(C)CCCOc1ccc(-c2cccc(C[C@H](NC(=O)[C@H]3CC[C@H](CN)CC3)C(=O)Nc3ccc(-c4nnc(Cl)[nH]4)cc3)c2)cn1 [Example 90, N-alpha-{[trans-4-(Aminomethyl)cyclohexyl]carbonyl}-N-[4-(3-chloro-4H-1,2,4-triazol-5-yl)phenyl]-3-{6-[3-(dimethylamino)propoxy]pyridin-3-yl}-L-phenylalaninamide hydrochloride] | 0.08 | 5.8 |
| Cc1ccc(C[C@H](NC(=O)[C@H]2CC[C@H](CN)CC2)C(=O)Nc2ccc(-c3nnn[nH]3)cc2)cc1-c1ccc(C(=O)NC2CCNCC2)cc1 [Example 49, 5′-[(2S)-2-({[trans-4-(Aminomethyl)cyclohexyl]carbonyl}amino)-3-oxo-3-{[4-(1H-tetrazol-5-yl)phenyl]amino}propyl]-2′-methyl-N-(piperidin-4-yl)biphenyl-4-carboxamide hydrochloride] | 0.47 | 21 |
| NC[C@H]1CC[C@H](C(=O)N[C@@H](Cc2cccc(-c3cnc(N4CCOCC4)nc3)c2)C(=O)Nc2ccc(-c3nnc(Cl)[nH]3)cc2)CC1 [Example 92, N-alpha-{[trans-4-(Aminomethyl)cyclohexyl]carbonyl}-N-[4-(3-chloro-4H-1,2,4-triazol-5-yl)phenyl]-3-[2-(morpholin-4-yl)pyrimidin-5-yl]-L-phenylalaninamide hydrochloride] | 0.37 | 3.6 |
| CN(C)CCNC(=O)c1cccc(-c2cccc(C[C@H](NC(=O)[C@H]3CC[C@H](CN)CC3)C(=O)Nc3ccc(-c4nnn[nH]4)cc3)c2)c1 [Example 39, 3′-[(2S)-2-({[trans-4-(Aminomethyl)cyclohexyl]carbonyl}amino)-3-oxo-3-{[4-(1H-tetrazol-5-yl)phenyl]amino}propyl]-N-[2-(dimethylamino)ethyl]biphenyl-3-carboxamide hydrochloride] | 0.22 | 8.9 |
| NC[C@H]1CC[C@H](C(=O)N[C@@H](Cc2cccc(-c3cccc(C(=O)NCCN4CCCC4)c3)c2)C(=O)Nc2ccc(-c3nnn[nH]3)cc2)CC1 [Example 61, 3′-[(2S)-2-({[trans-4-(Aminomethyl)cyclohexyl]carbonyl}amino)-3-oxo-3-{[4-(1H-tetrazol-5-yl)phenyl]amino}propyl]-N-[2-(pyrrolidin-1-yl)ethyl]biphenyl-3-carboxamide hydrochloride] | 0.37 | 12 |
| CC(=O)Nc1ncc(-c2cccc(C[C@H](NC(=O)[C@H]3CC[C@H](CN)CC3)C(=O)Nc3ccc(-c4nnn[nH]4)cc3)c2)c(C)n1 [Example 94, 3-[2-(Acetylamino)-4-methylpyrimidin-5-yl]-N-alpha-{[trans-4-(aminomethyl)cyclohexyl]-carbonyl}-N-[4-(1H-tetrazol-5-yl)phenyl]-L-phenylalaninamide hydrochloride] | 0.23 | 5.4 |
| CN1CCN(C(=O)c2ccc(-c3cccc(C[C@H](NC(=O)[C@H]4CC[C@H](CN)CC4)C(=O)Nc4ccc(-c5nnc(Cl)[nH]5)cc4)c3)cc2)CC1 [Example 27, trans-4-(Aminomethyl)-N-[(2S)-1-{[4-(3-chloro-4H-1,2,4-triazol-5-yl)phenyl]amino}-3-{4′-[(4-methylpiperazin-1-yl)carbonyl]biphenyl-3-yl}-1-oxopropan-2-yl]cyclohexanecarboxamide hydrochloride] | 0.3 | 4.7 |
| NC[C@H]1CC[C@H](C(=O)N[C@@H](Cc2cccc(-c3ccc(C(=O)NC4CCNCC4)cc3)c2)C(=O)Nc2ccc3cn[nH]c3c2)CC1 [Example 51, 3′-[(2S)-2-({[trans-4-(Aminomethyl)cyclohexyl]carbonyl}amino)-3-(1H-indazol-6-ylamino)-3-oxopropyl]-N-(piperidin-4-yl)biphenyl-4-carboxamide hydrochloride] | 0.33 | 36 |
| NC[C@H]1CC[C@H](C(=O)N[C@@H](Cc2cccc(-c3cnc(N4CCOCC4)nc3)c2)C(=O)Nc2ccc(-c3n[nH]c(C(F)(F)C(F)(F)C(=O)O)n3)cc2)CC1 [Example 96, 3-(3-{4-[(N-{[trans-4-(Aminomethyl)cyclohexyl]carbonyl}-3-[2-(morpholin-4-yl)pyrimidin-5-yl]-L-phenylalanyl)amino]phenyl}-1H-1,2,4-triazol-5-yl)-2,2,3,3-tetrafluoropropanoic acid hydrochloride] | 0.19 | 3.3 |
